# Results published in paper PMC10030390, “A phase 1 open-label study to assess the relative bioavailability of TAK-931 tablets in reference to powder-in-capsule in patients with advanced solid tumors” (Investigational New Drugs, 2022).
# Where “and” joins values, the source holds several entries; their conditions need not be identical. Identical values can stand only once. Like-named read-outs stand apart in the source and are kept apart here.
# Key:
# [1] = test system: locally advanced or metastatic solid tumors; assay: Antitumor activity, investigator-assessed disease response (RECIST v1.1); type: in vivo, human
# Method: The primary endpoints were the ratio of geometric means of the following PK parameters for TAK-931 tablets in reference to PIC and associated 2-sided 90% confidence intervals (CIs): maximum observed plasma concentration (Cmax), area under the plasma concentration–time curve (AUC) from time 0 to time of the last quantifiable concentration (AUClast), and the AUC from time 0 to infinity (AUCinf). Secondary endpoints were PK parameters of TAK-931 80 mg following a single-dose administration as PIC or tablet (time of first occurrence of maximum observed plasma concentration [Tmax], and terminal disposition phase half-life [T1/2z]), antitumor activity, and safety.
# solid tumors = test system: solid tumors; parameters: method as in earlier work; details: of 24 response-evaluable patients, first-in-human phase 1 study; cited from earlier work
# [2] = parameters: method as in NCT02699749; details: estimated from preliminary data, ref NCT02699749; cited from earlier work
compound,measurement,setting,value
Cc1[nH]ncc1-c1cc2nc([C@@H]3CC4CCN3CC4)[nH]c(=O)c2s1 [TAK-931],partial or complete responses,[1]; 19 patients evaluable for response,No partial or complete responses
same,Median time to PD or death,[1]; 95% CI: 1.6–2.8,1.9 months
same,individual progression-free survival durations of patients with SD,"[1]; four patients with best response SD, + = censored observation",3.58 months and ≥ 2.23 months and 3.55 months and 4.01 months
same,On-study deaths,"PIC/Tablet sequence, n = 12",0 n (%)
same,On-study deaths,"Tablet/PIC sequence, n = 8",1 (13) n (%)
same,Dose modification: Dose increased,"human, in vivo",0 n (%)
same,Serious TEAEs: Not related,"human, in vivo",2 (25) n (%) and 2 (17) n (%) and 4 (20) n (%)
same,"TEAE Alopecia, Any-grade","human, in vivo",6 (30) n (%)
same,"TEAE Constipation, Any-grade","human, in vivo",8 (40) n (%)
same,"TEAE Decreased appetite, Any-grade","human, in vivo",4 (20) n (%)
same,"TEAE Disturbance in attention, Any-grade","human, in vivo",2 (10) n (%)
same,"TEAE Dyspnea, Any-grade","human, in vivo",3 (15) n (%)
same,"TEAE Dyspnea, Grade ≥ 3","human, in vivo",1 (5) n (%)
same,"TEAE Fatigue, Any-grade","human, in vivo",13 (65) n (%)
same,"TEAE Fatigue, Grade ≥ 3","human, in vivo",1 (5) n (%)
same,"TEAE Headache, Any-grade","human, in vivo",3 (15) n (%)
same,"TEAE Hypertension, Any-grade","human, in vivo",3 (15) n (%)
same,"TEAE Hypertension, Grade ≥ 3","human, in vivo",1 (5) n (%)
same,"TEAE Hypokalemia, Any-grade","human, in vivo",1 (5) n (%)
same,"TEAE Hypokalemia, Grade ≥ 3","human, in vivo",1 (5) n (%)
same,"TEAE Ileus, Any-grade","human, in vivo",2 (10) n (%)
same,"TEAE Ileus, Grade ≥ 3","human, in vivo",2 (10) n (%)
same,"TEAE Nausea, Any-grade","human, in vivo",8 (40) n (%)
same,"TEAE Neutropenia, Any-grade","human, in vivo",2 (10) n (%)
same,"TEAE Neutropenia, Grade ≥ 3","human, in vivo",2 (10) n (%)
same,"TEAE Pneumonia, Any-grade","human, in vivo",1 (5) n (%)
same,"TEAE Pneumonia, Grade ≥ 3","human, in vivo",1 (5) n (%)
same,"TEAE Rectal cancer, Any-grade","human, in vivo",1 (5) n (%)
same,"TEAE Rectal cancer, Grade ≥ 3","human, in vivo",1 (5) n (%)
same,"TEAE Vomiting, Any-grade","human, in vivo",6 (30) n (%)
same,"TEAE Weight decrease, Any-grade","human, in vivo",3 (15) n (%)
same,patients with TEAE alopecia,"human, in vivo",30%
same,patients with TEAE constipation,"human, in vivo",40%
same,patients with TEAE fatigue,"human, in vivo",65%
same,patients with TEAE nausea,"human, in vivo",40%
same,patients with TEAE vomiting,"human, in vivo",30%
same,patients with grade ≥ 3 TEAE ileus,"human, in vivo",10%
same,patients with grade ≥ 3 TEAE neutropenia,"human, in vivo",10%
same,patients with treatment-related TEAE alopecia,"human, in vivo",30%
same,patients with treatment-related TEAE decreased appetite,"human, in vivo",20%
same,patients with treatment-related TEAE fatigue,"human, in vivo",50%
same,patients with treatment-related TEAE nausea,"human, in vivo",30%
same,patients with treatment-related TEAE vomiting,"human, in vivo",20%
same,patients with a partial response,solid tumors,3
same,patients with prolonged SD,solid tumors,4
same,within-patient coefficient of variation for AUC,[2],35.0%
same,within-patient coefficient of variation for Cmax,[2],36.9%
